Assay results: ChEMBL document CHEMBL4342505, “Achieving In Vivo Target Depletion through the Discovery and Optimization of Benzimidazolone BCL6 Degraders” (J Med Chem, 2020)
≈ marks a conversion by molar mass, not a printed value.

Tests used:
[1] = Kinetic solubility in HEPES buffer containing 5% DMSO at pH 8 incubated for 20 hrs by NMR analysis; type: physicochemical; conditions: read-out: Kinetic_solubility
[2] = target: T1, B-cell lymphoma 6 protein (Homo sapiens, UniProt P41182)
Description: Inhibition of recombinant His-tagged human BCL6 expressed in Escherichia coli BL21 AI cell incubated for 2 hrs by TR-FRET assay

[3] = target: T1, B-cell lymphoma 6 protein; remark: listed apart in the source
Description: Induction of BCL6 degradation in human SUDHL-4 cells incubated for 2 hrs by immunofluorescence analysis

[4] = target: BCL-6/NCOR2 (Homo sapiens, UniProt P41182)
Description: Inhibition of recombinant human Nanoluc-tagged BCL6/Halo-tagged SMRT transfected in human HEK293T cells assessed as reduction in BCL6/SMRT interaction incubated for 6 hrs by NANOBRET assay

SMILES | solubility kinetic at 20 h [1] | IC50 [2] | DC50 [3] | IC50 [4]
Cn1c(=O)n(CCC(C)(C)O)c2cc(Nc3nc(N4CC5CCC(C4)C5(F)F)ncc3Cl)ccc21 | 22 µM (≈ 11.2 µg/mL) | 710 nM | > 10000 nM | 
Cn1ccnc1-c1ncc(Cl)c(Nc2ccc3c(c2)n(CCC(C)(C)O)c(=O)n3C)n1 | 113 µM (≈ 49.9 µg/mL) | 480 nM | > 10000 nM | 4600 nM
Cc1ccnn1-c1ncc(Cl)c(Nc2ccc3c(c2)n(CCC(C)(C)O)c(=O)n3C)n1 | 420 µM (≈ 186 µg/mL) | 430 nM | > 10000 nM | 2700 nM
CCCCn1c(=O)n(C)c2ccc(Nc3ccnc(Cl)c3C#N)cc21 | 53 µM (≈ 18.9 µg/mL) | 6600 nM |  | 
Cn1c(=O)n(C)c2cc(Nc3ncccc3C#N)ccc21 | 300 µM (≈ 83.8 µg/mL) |  |  | 
Cn1c(=O)n(CCC(C)(C)O)c2cc(Nc3ccncc3Cl)ccc21 | 526 µM (≈ 190 µg/mL) | 990 nM |  | 
CCC(O)Cn1c(=O)n(C)c2ccc(Nc3ccnc(Cl)c3C#N)cc21 (racemic) | 298 µM (≈ 111 µg/mL) | 5400 nM |  | 
Cn1c(=O)n(CCC(C)(C)O)c2cc(Nc3ccnc(Cl)c3Cl)ccc21 | 251 µM (≈ 99.2 µg/mL) | 1400 nM |  | 
Cn1c(=O)n(C)c2cc(Nc3cc(SCc4ccccc4)ncn3)ccc21 | < 30 µM |  |  | 
Cn1c(=O)n(CCC(C)(C)O)c2cc(Nc3ncnc(Cl)c3Cl)ccc21 | 344 µM (≈ 136 µg/mL) | 2100 nM |  | 
C[C@@H](O)CCn1c(=O)n(C)c2ccc(Nc3ccnc(Cl)c3C#N)cc21 | 308 µM (≈ 115 µg/mL) |  |  | 
Cn1c(=O)n(CCC(C)(C)O)c2cc(Nc3c(Cl)cncc3Cl)ccc21 | 126 µM (≈ 49.8 µg/mL) | 37000 nM |  | 
CC[C@H](O)Cn1c(=O)n(C)c2ccc(Nc3ccnc(Cl)c3C#N)cc21 | 313 µM (≈ 116 µg/mL) | 4600 nM |  | 
Cc1ccn(-c2ncc(Cl)c(Nc3ccc4c(c3)n(CCC(C)(C)O)c(=O)n4C)n2)n1 | 253 µM (≈ 112 µg/mL) | 400 nM | > 10000 nM | 2500 nM
C[C@@H]1CN(c2cc(Nc3ccc4c(c3)n(CCC(C)(C)O)c(=O)n4C)c(Cl)cn2)C[C@H](C)O1 | 83 µM (≈ 39.3 µg/mL) | 930 nM |  | 5000 nM
Cn1c(=O)n(CCC(C)(C)O)c2cc(Nc3nc(N4CCCC(C#N)C4)ncc3Cl)ccc21 (stereo not drawn) | 330 µM (≈ 155 µg/mL) | 390 nM | > 10000 nM | 
N#Cc1c(NCC2CC2)ccnc1Cl | 300 µM (≈ 62.3 µg/mL) |  |  | 
N#Cc1c(NCc2ccccc2)ccnc1Cl | 60 µM (≈ 14.6 µg/mL) |  |  | 
Cc1nc(C)c(-c2ncc(Cl)c(Nc3ccc4c(c3)n(CCC(C)(C)O)c(=O)n4C)n2)s1 | < 30 µM | 1400 nM | > 10000 nM | 
CN(C)c1ncc(Cl)c(Nc2ccc3c(c2)n(CCC(C)(C)O)c(=O)n3C)n1 | 223 µM (≈ 90.3 µg/mL) | 1200 nM |  | 
Cn1c(=O)n(CCC(C)(C)O)c2cc(Nc3nc(N4CCOCC4)ncc3Cl)ccc21 | 370 µM (≈ 165 µg/mL) | 270 nM |  | 2300 nM
C[C@H](O)CCn1c(=O)n(C)c2ccc(Nc3ccnc(Cl)c3C#N)cc21 | 251 µM (≈ 93.3 µg/mL) |  |  | 
Cn1c(=O)n(CCC(C)(C)O)c2cc(Nc3nc(N4CCCCC4)ncc3Cl)ccc21 | 70 µM (≈ 31.1 µg/mL) | 1000 nM |  | 
Cn1c(=O)n(CCC(C)(C)O)c2cc(Nc3nc(Cl)ncc3Cl)ccc21 | 361 µM (≈ 143 µg/mL) |  |  | 
CC[C@@H](O)Cn1c(=O)n(C)c2ccc(Nc3ccnc(Cl)c3C#N)cc21 | 307 µM (≈ 114 µg/mL) | 4500 nM |  | 
Cn1c(=O)n(CCC(C)(C)O)c2cc(Nc3nc(N4CCC(C(F)(F)F)CC4)ncc3Cl)ccc21 | 22 µM (≈ 11.3 µg/mL) | 960 nM | > 10000 nM | 
CSc1ncc(Cl)c(Nc2ccc3c(c2)n(CCC(C)(C)O)c(=O)n3C)n1 | 337 µM (≈ 137 µg/mL) | 680 nM |  | 
C[C@@H]1C[C@H](C)CN(c2cc(Nc3ccc4c(c3)n(CCC(C)(C)O)c(=O)n4C)c(Cl)cn2)C1 | 12 µM (≈ 5.66 µg/mL) | 3500 nM | 1800 nM | 
Cn1c(=O)n(CCC(C)(C)O)c2cc(Nc3nc(N4C5CCC4CC(F)(F)C5)ncc3Cl)ccc21 | < 30 µM |  |  | 
